Data from ChEMBL document CHEMBL1144745, “Alkyne-quinuclidine derivatives as potent and selective muscarinic antagonists for the treatment of COPD” (Bioorg Med Chem Lett, 2008).
Active and inactive are the calls of the source. The rule behind the calls is not given here.

Legend:
[1] = molecular target: Muscarinic acetylcholine receptor M3 (Homo sapiens, UniProt P20309); assay: Displacement of [3H]N-methylscopolamine from human recombinant muscarinic M3 receptor expressed in CHO cells; type: cell-based
[2] = molecular target: T1, Muscarinic acetylcholine receptor M2 (Homo sapiens, UniProt P08172); assay: Displacement of [3H]N-methylscopolamine from human recombinant muscarinic M2 receptor expressed in CHO cells; type: cell-based
T1 sequence (P08172 whole entry): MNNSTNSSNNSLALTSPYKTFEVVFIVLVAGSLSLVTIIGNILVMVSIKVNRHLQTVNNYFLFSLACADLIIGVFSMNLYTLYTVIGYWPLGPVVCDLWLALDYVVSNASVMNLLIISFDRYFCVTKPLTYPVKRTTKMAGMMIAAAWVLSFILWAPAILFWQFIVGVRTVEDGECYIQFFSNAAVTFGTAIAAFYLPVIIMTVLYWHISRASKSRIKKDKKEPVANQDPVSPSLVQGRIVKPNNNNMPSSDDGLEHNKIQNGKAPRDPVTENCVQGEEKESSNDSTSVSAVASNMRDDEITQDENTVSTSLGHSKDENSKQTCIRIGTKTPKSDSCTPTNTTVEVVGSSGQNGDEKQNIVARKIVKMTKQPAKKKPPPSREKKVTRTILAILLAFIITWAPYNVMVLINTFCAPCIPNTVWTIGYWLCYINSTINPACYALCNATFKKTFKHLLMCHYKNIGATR

[3] = molecular target: Muscarinic acetylcholine receptor M3 (Cavia porcellus, UniProt Q8VH26); assay: Antagonist activity at muscarinic M3 receptor in carbachol-stimulated guinea pig trachea; type: functional; details: read-out: pA2 (converted)
[4] = (§1) Antagonist activity at muscarinic M2 receptor in carbachol-stimulated guinea pig left atrium; type: functional, tissue-based; details: Cavia porcellus, Cardiac atrium; read-out: pA2 (converted)
[5] = molecular target: Muscarinic acetylcholine receptor M3 (Cavia porcellus) (UniProt Q8VH26); assay: Reversible inhibition of muscarinic M3 receptor in electrically-stimulated guinea pig trachea assessed as recovery of maximal effect at >280 min; type: tissue-based; parameters: scale not given: the % may be the effect or the level left
Cavia porcellus = organism: Cavia porcellus; assay: as §1; type: functional, tissue-based; details: Cardiac atrium

Sequence of Muscarinic acetylcholine receptor M3 (Homo sapiens, UniProt P20309) (P20309 whole entry): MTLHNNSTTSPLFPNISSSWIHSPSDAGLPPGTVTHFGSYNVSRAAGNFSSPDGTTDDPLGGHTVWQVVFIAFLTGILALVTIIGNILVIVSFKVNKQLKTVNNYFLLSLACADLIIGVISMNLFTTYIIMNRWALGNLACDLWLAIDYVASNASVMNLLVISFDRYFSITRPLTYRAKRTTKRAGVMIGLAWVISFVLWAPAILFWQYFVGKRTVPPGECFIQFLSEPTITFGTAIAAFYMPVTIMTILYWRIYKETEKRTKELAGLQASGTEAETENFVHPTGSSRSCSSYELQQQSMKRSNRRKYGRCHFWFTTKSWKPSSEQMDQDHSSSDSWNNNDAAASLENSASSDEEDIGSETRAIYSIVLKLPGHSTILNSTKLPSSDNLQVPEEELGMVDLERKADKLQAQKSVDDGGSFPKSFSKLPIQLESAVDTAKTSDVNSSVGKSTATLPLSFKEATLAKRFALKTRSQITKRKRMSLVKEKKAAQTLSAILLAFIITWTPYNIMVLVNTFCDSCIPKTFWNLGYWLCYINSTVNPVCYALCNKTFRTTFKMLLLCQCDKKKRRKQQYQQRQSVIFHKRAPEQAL
Sequence of Muscarinic acetylcholine receptor M3 (Cavia porcellus) (Q8VH26 1-587): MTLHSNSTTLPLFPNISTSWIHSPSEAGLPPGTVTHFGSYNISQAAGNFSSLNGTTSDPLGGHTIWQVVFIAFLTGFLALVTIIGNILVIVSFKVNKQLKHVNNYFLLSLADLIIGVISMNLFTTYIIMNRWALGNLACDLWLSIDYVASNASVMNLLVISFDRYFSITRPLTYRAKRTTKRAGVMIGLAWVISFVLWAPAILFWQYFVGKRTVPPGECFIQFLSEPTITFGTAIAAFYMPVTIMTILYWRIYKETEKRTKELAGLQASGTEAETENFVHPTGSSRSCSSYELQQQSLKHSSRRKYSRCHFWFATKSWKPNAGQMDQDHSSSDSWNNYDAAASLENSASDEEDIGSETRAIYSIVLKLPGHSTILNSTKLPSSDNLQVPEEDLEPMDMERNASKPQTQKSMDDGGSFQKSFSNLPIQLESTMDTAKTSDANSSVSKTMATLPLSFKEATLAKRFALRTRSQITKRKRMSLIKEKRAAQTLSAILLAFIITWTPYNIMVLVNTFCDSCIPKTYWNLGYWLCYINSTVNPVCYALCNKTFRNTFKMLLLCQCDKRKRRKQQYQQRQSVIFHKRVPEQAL
Sequence of Muscarinic acetylcholine receptor M3 (Cavia porcellus, UniProt Q8VH26) (Q8VH26 whole entry): as the sequence (Q8VH26 1-587) above

Row | SMILES | Ki [1] [nM] | Ki [2] [nM] | Kb [3] [nM] | Kb [4] [nM] | Activity [5] [%] | Activity (Cavia porcellus)
1 | CO[C@]1(C#C[C@](O)(c2ccccc2)C2CCCCCCC2)CN2CCC1CC2 | 0.316 | 3.16 | 6.31 | 31.6 | 20 | 
2 | CO[C@]1(C#C[C@@](O)(c2ccccc2)C2CCCCCC2)CN2CCC1CC2 | 2 | 20 |  |  |  | Active
3 | COC1(C#CC(C#N)(c2ccccc2)c2ccccc2)CN2CCC1CC2 (stereo not given) | 2.51 | 6.31 |  |  |  | Active
4 | COC(C#C[C@@]1(OC)CN2CCC1CC2)(c1ccccc1)c1ccccc1 | 10 | 158 |  |  |  | Active
5 | C[N+]1(C)[C@@H]2C[C@@H](OC(=O)C(O)(c3cccs3)c3cccs3)C[C@H]1[C@@H]1O[C@@H]12 |  |  |  |  |  | Active
6 | CO[C@]1(C#C[C@](O)(c2ccccc2)C2CCCCC2)CN2CCC1CC2 |  |  |  |  |  | Active
7 | CO[C@]1(C#CC(O)(c2ccccc2)c2ccccc2)CN2CCC1CC2 |  |  |  |  |  | Active
8 | COC1(C#CC(C)(c2ccccc2)c2ccccc2)CN2CCC1CC2 (stereo not given) | 15.8 | 39.8 |  |  |  | Active
9 | CO[C@]1(C#C[C@@](O)(c2ccccc2)C2CCCCCCC2)CN2CCC1CC2 | 2.51 | 31.6 |  |  |  | Active
10 | CO[C@]1(C#C[C@@](O)(c2ccccc2)C2CCCCC2)CN2CCC1CC2 |  |  |  |  |  | Active
11 | CC(C)[N+]1(C)C2CCC1CC(OC(=O)[C@H](CO)c1ccccc1)C2 (stereo not given in full) |  |  |  |  |  | Active
12 | CO[C@]1(C#C[C@](O)(c2ccccc2)C2CCCCCC2)CN2CCC1CC2 | 0.316 | 2.51 | 6.31 | 5.01 | 20 | 
